What was measured:
Assay in all cases: relative viability (nuclei count vs DMSO), 5 days (fraction); higher = more cells survive
ALW-II-49-7 + Lapatinib = compound: Cc1ccc(C(=O)Nc2cccc(C(F)(F)F)c2)cc1Nc1cncc(C(N)=O)c1 [ALW-II-49-7] + CS(=O)(=O)CCNCc1ccc(-c2ccc3ncnc(Nc4ccc(OCc5cccc(F)c5)c(Cl)c4)c3c2)o1 [Lapatinib] (partner 2 µM)
Outline: (§1)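 The day after seeding in 1536-well plates, lung cancer cell lines were treated by pin tool with a single drug, or with a fixed anchor-drug dose together with five library-drug doses (not always all listed) in √10 steps. After 5 days, a combined fix-and-stain solution (final 0.05% Triton X-100, 1% formaldehyde, 1 ug/ml Hoechst) was added. Nuclei counted on 4× images gave relative viability as treated counts over vehicle counts, reported as the median of duplicate plates.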

XMD13-2 + Crizotinib = compound: C1CC1C(=O)NC2=NNC3=C2C=CC(=C3)C4=CC(=CC=C4)C(=O)NC5CC5 [XMD13-2] + C[C@@H](Oc1cc(-c2cnn(C3CCNCC3)c2)cnc1N)c1c(Cl)ccc(F)c1Cl [Crizotinib] (partner 1 µM)
Outline: as §1

Dasatinib + Bortezomib = compound: Cc1nc(Nc2ncc(C(=O)Nc3c(C)cccc3Cl)s2)cc(N2CCN(CCO)CC2)n1 [Dasatinib] + CC(C)C[C@H](NC(=O)[C@H](Cc1ccccc1)NC(=O)c1cnccn1)B(O)O [Bortezomib] (partner 0.002 µM)
Outline: as §1

Dasatinib + Crizotinib = compound: Cc1nc(Nc2ncc(C(=O)Nc3c(C)cccc3Cl)s2)cc(N2CCN(CCO)CC2)n1 [Dasatinib] + C[C@@H](Oc1cc(-c2cnn(C3CCNCC3)c2)cnc1N)c1c(Cl)ccc(F)c1Cl [Crizotinib] (partner 1 µM)
Outline: as §1

Cell Line	relative viability (ALW-II-49-7 + Lapatinib; first compound 0.08 µM)	relative viability (ALW-II-49-7 + Lapatinib; first compound 0.253 µM)	relative viability (ALW-II-49-7 + Lapatinib; first compound 0.8 µM)	relative viability (ALW-II-49-7 + Lapatinib; first compound 2.53 µM)	relative viability (ALW-II-49-7 + Lapatinib; first compound 8 µM)	relative viability (XMD13-2 + Crizotinib; first compound 0.05 µM)	relative viability (XMD13-2 + Crizotinib; first compound 0.1581 µM)	relative viability (XMD13-2 + Crizotinib; first compound 0.5 µM)	relative viability (XMD13-2 + Crizotinib; first compound 1.581 µM)	relative viability (XMD13-2 + Crizotinib; first compound 5 µM)	relative viability (Dasatinib + Bortezomib; first compound 0.005 µM)	relative viability (Dasatinib + Bortezomib; first compound 0.01581 µM)	relative viability (Dasatinib + Bortezomib; first compound 0.05 µM)	relative viability (Dasatinib + Bortezomib; first compound 0.1581 µM)	relative viability (Dasatinib + Bortezomib; first compound 0.5 µM)	relative viability (Dasatinib + Crizotinib; first compound 0.005 µM)	relative viability (Dasatinib + Crizotinib; first compound 0.01581 µM)	relative viability (Dasatinib + Crizotinib; first compound 0.05 µM)	relative viability (Dasatinib + Crizotinib; first compound 0.1581 µM)	relative viability (Dasatinib + Crizotinib; first compound 0.5 µM)
NCI-H2023	0.801	0.6	0.866	0.743	0.58	0.738	0.592	0.62	0.556	0.809	0.788	0.818	0.791	0.705	0.669	0.491	0.492	0.376	0.281	0.26
NCI-H2085	0.892	0.858	0.718	0.776	0.707	1.09	0.901	0.877	0.736	0.826	1.09	0.958	0.86	0.397	0.262	0.93	0.806	0.408	0.193	0.158
NCI-H2087	0.976	1.07	0.839	1.15	1.01	0.821	0.776	0.913	0.83	0.897	0.751	0.769	0.869	0.815	0.665	0.858	0.938	0.946	0.863	0.639
NCI-H2126	0.603	0.826	0.765	0.737	0.752	1.08	0.979	1.04	0.998	1.06	1.08	1.07	1.16	0.988	0.587	0.966	0.9	0.915	0.607	0.369
NCI-H2228	0.996	0.595	0.984	1.08	0.659	0.714	0.442	0.496	0.445	0.513	0.645	0.988	0.888	0.691	0.47	0.296	0.431	0.257	0.152	0.17
NCI-H2347	1.11	0.958	1.11	0.85	0.8	0.739	0.676	0.772	0.906	0.73	0.732	0.857	0.929	0.324	0.368	0.316	0.397	0.355	0.301	0.369
NCI-H2405	1.01	1.24	0.972	0.938	0.89	0.932	0.84	0.971	0.846	0.837	0.879	0.956	0.616	0.475	0.306	0.698	0.568	0.493	0.258	0.194
NCI-H3122	1.11	0.92	1.05	1.11	1.05	0.308	0.289	0.267	0.251	0.249	0.988	0.94	1.02	1.05	0.815	0.261	0.332	0.347	0.253	0.223
PC-3 [JPC-3]	0.387	0.461	0.485	0.471	0.419	1.02	0.897	0.963	1.01	0.847	0.839	0.733	0.925	0.818	0.465	0.996	0.986	1.11	0.955	0.63
PC-14	0.286	0.303	0.308	0.331	0.292	1.03	0.961	0.909	0.818	0.969	0.822	0.96	0.969	0.585	0.35	0.94	0.975	0.855	0.448	0.113
RERF-LC-KJ	0.867	0.948	0.867	0.941	0.859	0.865	0.85	0.816	0.771	0.801	1.1	0.765	0.965	0.955	0.77	0.839	0.977	0.832	0.75	0.764
SK-LU-1	0.738	0.984	0.774		0.607	0.912	0.966	1	0.828	0.944	0.954	0.777	0.726	0.33	0.406	0.558	0.417	0.35	0.251	0.251
SW 1573	1.14	1.21	1.1	1.2	1.15	1.11	0.429	0.815	0.668	0.322	0.875	0.881	0.861	0.618	0.395	0.826	0.689	0.624	0.429	0.356

— the supplement of paper PMC10307832
